According to ChEMBL document CHEMBL1201862, “PubChem BioAssay data set” (2004):
Active and inactive are the calls of the source.

Legend:
Bcl-2-like protein 10 = biological target: T1, Bcl-2-like protein 10 (Homo sapiens, UniProt Q9HD36); test: Bcl-B/TR3 peptide binding disruption – biochemical, fluorescence polarization, FITC-TR3 peptide, selectivity assay for Bfl-1 inhibitor project, primary screen (AID 748);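 note: fluorescence polarization from a fluorescein-labelled TR3 peptide binding purified Bcl-B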
T1 sequence (Q9HD36 whole entry): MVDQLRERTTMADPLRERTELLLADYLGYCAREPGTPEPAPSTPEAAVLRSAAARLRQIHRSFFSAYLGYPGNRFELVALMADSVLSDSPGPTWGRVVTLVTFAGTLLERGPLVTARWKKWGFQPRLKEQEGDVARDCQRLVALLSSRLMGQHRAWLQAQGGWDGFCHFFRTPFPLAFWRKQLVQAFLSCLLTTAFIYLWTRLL

Estrogen receptor beta = Estrogen receptor beta (Homo sapiens, UniProt Q92731); test: blockers of SRC-3 recruitment to ERβ – biochemical, ELISA, streptavidin-HRP readout, orthogonal assay, confirmation (AID 1060)
[1] = biological target: T2, Polyadenylate-binding protein 1 (Homo sapiens, UniProt P11940); test: MLLE domain peptide-binding blockers, IC50 – biochemical, fluorescence polarization, FITC-PAM2 peptide, dose response (AID 602259); format: functional; details: read-out: IC50_Mean
[2] = biological target: T2, Polyadenylate-binding protein 1; test: MLLE binding blockers, Cy5 peptide tracer – biochemical, fluorescence polarization, Cy5-PAM2 peptide, secondary, miRNA deadenylation inhibitor project, dose response (AID 602260); format: functional; details: read-out: IC50_Mean
Protein RecA = biological target: T3, Protein RecA (Mycobacterium tuberculosis, UniProt P9WHJ3); test: Fluorescence Cell-Free Homogeneous Dose Retest to Identify Inhibitors of RecA-Intein Splicing Activity. [Related pubchem assays (depositor defined):AID2097, AID2223, AID489010, AID492950]; format: functional
T3 sequence (P9WHJ3 whole entry): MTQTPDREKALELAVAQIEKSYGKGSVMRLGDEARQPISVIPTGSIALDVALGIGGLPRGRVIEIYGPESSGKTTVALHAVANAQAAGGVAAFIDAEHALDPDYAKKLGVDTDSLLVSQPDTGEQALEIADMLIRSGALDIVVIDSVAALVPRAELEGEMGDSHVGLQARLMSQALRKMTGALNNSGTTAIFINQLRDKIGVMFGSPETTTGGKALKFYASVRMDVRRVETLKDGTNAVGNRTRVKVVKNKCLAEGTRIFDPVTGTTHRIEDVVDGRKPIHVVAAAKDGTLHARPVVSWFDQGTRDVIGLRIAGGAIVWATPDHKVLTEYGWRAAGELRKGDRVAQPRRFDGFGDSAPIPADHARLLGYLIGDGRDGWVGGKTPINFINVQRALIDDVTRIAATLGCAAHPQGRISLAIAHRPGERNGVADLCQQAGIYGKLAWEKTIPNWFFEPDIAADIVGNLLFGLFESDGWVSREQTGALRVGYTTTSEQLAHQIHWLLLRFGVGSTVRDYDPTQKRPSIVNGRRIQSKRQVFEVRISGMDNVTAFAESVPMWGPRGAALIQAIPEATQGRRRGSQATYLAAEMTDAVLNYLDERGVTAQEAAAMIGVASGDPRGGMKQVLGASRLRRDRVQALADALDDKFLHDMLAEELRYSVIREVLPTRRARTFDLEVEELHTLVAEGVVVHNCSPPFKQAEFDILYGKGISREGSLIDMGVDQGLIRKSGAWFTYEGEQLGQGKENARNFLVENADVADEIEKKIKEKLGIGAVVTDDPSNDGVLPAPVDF

[3] = A cytotoxicity screen of small molecule inhibitors of the PhoP region in Salmonella typhi identified in the primary screen. [Related pubchem assays: 1850, 1864, 1985 ]; format: functional
[4] = biological target: T4, Replicative DNA helicase DnaB (Mycobacterium tuberculosis, UniProt P9WMR3); test: DnaB intein splicing inhibitors, dose response, biochemical, cell-free fluorescence (AID 449749); format: functional
T4 sequence (P9WMR3 whole entry): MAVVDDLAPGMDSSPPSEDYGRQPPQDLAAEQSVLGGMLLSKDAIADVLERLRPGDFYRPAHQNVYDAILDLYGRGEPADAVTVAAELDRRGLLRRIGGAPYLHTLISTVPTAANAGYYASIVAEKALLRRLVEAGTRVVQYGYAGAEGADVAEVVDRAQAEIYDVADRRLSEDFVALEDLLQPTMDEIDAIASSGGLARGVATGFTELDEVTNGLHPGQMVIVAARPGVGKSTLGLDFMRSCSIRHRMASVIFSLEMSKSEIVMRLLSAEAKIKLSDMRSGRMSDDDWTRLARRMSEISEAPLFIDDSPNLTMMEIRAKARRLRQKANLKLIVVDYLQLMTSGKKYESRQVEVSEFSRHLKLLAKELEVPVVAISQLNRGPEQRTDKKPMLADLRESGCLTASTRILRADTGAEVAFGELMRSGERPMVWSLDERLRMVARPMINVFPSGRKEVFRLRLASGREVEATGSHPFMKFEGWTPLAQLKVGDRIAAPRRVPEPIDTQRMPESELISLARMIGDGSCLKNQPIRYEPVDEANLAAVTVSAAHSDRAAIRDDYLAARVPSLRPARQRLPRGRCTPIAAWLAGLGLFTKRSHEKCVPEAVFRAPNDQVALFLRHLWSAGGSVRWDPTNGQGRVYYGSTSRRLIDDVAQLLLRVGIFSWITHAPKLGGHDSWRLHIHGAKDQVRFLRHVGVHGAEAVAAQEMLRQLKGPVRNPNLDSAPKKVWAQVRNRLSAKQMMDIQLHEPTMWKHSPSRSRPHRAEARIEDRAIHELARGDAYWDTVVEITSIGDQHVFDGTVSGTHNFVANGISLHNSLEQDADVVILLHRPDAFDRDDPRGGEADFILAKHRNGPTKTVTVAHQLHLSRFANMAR

[5] = biological target: Acyl-homoserine lactone acylase PvdQ (Pseudomonas aeruginosa (strain LESB58), UniProt Q9I194); test: PvdQ acylase enzyme activity blockers – biochemical, fluorescence, plate reader and imaging, cherry-picks, dose response (AID 493231)
[6] = M. tuberculosis H37Rv growth inhibitors, H37Rv strain (AID 1626); format: functional
[7] = biological target: Cyclin-dependent kinase 5/CDK5 activator 1 (Homo sapiens, UniProt Q00535); test: blockade of human CDK5 activity – biochemical, cherry-picked samples, set 2, dose response (AID 504545)
[8] = biological target: T5, Nucleotide-binding oligomerization domain-containing protein 1 (Homo sapiens, UniProt Q9Y239); test: blockers of NOD1 pathway activity – revised, SAR follow-up (AID 2333); format: functional
T5 sequence (Q9Y239 whole entry): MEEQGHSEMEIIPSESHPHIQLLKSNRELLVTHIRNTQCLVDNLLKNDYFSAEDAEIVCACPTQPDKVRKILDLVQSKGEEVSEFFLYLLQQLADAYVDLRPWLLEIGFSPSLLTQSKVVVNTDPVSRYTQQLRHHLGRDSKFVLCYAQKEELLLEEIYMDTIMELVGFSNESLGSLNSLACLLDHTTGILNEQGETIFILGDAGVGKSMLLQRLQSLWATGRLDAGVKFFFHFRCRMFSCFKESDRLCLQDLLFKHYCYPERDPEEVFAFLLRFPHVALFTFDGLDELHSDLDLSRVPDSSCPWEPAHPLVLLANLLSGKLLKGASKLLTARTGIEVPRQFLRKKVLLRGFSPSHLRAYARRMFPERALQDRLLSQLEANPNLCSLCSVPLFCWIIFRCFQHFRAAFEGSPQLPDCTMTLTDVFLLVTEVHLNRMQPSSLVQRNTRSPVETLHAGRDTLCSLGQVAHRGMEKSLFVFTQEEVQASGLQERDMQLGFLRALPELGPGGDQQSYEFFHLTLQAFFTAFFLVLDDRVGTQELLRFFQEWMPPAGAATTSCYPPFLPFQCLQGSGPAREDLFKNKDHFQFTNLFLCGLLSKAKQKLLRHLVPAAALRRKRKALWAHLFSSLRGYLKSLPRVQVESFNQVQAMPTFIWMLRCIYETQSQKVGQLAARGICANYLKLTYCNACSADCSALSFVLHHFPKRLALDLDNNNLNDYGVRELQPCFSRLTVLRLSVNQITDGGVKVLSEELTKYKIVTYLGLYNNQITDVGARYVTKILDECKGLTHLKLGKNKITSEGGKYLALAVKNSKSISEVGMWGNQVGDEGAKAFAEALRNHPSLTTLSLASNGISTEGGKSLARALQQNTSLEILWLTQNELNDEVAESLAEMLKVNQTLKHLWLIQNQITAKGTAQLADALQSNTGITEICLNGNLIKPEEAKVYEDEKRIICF

[9] = biological target: T6, Heat shock factor protein 1 (Mus musculus, UniProt P38532); test: decrease of HSF1-responsive luciferase luminescence – cell-based, NIH3T3, dose retest, confirmation (AID 2382); format: functional;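 note: NIH3T3 fibroblasts with HSF1-driven luciferase reporter stressed by proteasome inhibitor MG132; luminescence from HSF1-driven luciferase expression after 8 hours of MG132 stress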
T6 sequence (P38532 whole entry): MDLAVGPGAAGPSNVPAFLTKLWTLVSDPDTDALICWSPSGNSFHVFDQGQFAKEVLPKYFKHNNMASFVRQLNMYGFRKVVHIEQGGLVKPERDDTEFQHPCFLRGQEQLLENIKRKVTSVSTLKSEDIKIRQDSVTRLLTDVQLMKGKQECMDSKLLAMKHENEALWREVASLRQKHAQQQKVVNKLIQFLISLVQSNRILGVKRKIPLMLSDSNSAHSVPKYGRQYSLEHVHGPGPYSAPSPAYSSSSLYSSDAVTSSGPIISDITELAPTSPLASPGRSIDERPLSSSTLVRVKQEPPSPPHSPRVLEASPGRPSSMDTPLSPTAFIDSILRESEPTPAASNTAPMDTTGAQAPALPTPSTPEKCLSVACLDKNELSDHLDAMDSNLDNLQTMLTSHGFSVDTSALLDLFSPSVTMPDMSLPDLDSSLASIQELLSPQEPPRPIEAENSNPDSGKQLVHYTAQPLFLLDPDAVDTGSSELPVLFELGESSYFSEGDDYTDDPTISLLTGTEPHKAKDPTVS

Tumor necrosis factor = Tumor necrosis factor (Homo sapiens, UniProt P01375); test: analog potency on TNFa NF-kB signaling – cell-based, revised, SAR follow-up (AID 2337); format: functional
[10] = biological target: Peroxisome proliferator-activated receptor gamma/Nuclear receptor corepressor 2 (Homo sapiens, UniProt P37231+Q9Y618); format: functional
[11] = biological target: Peroxisome proliferator-activated receptor gamma/Nuclear receptor coactivator 1 (Homo sapiens, UniProt P37231); format: functional;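 note: agonist potency as compounds enhance coactivator SRC-1 recruitment to PPARgamma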
[12] = biological target: Peroxisome proliferator-activated receptor gamma/Nuclear receptor coactivator 2 (Homo sapiens, UniProt P37231); format: functional;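 note: agonist potency for raising coactivator recruitment to the receptor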
[13] = biological target: Photoreceptor-specific nuclear receptor (Homo sapiens, UniProt Q9Y5X4); format: functional;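 note: potency for compounds that break the NR2E3 corepressor complex and count as activators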
[14] = biological target: Peroxisome proliferator-activated receptor gamma/Nuclear receptor coactivator 3 (Homo sapiens, UniProt P37231); format: functional;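 note: agonist potency for raising coactivator recruitment to the receptor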
[15] = biological target: T7, Small ubiquitin-related modifier 1 (Homo sapiens, UniProt P63165); test: SUMO1 protein-protein binding blockers, potency – biochemical, FRET, dose response (AID 624383); format: functional; details: read-out: IC50_Mean
[16] = biological target: T7, Small ubiquitin-related modifier 1; test: SUMO1 protein interaction blockers, potency – biochemical, fluorescence polarization, uHTS hits, dose response (AID 624382); format: functional; details: read-out: IC50_Mean

Chain of Cyclin-dependent kinase 5/CDK5 activator 1 (Q00535 whole entry, the tested form may be a part): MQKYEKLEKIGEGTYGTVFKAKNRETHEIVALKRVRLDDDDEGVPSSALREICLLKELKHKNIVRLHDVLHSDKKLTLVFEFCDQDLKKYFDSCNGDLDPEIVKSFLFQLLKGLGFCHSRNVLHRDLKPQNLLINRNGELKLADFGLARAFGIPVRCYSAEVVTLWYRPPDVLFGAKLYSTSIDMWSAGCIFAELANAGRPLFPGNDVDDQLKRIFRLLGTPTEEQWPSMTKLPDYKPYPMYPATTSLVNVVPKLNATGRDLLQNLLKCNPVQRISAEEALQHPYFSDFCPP
Chain of Cyclin-dependent kinase 5/CDK5 activator 1 (Q15078 whole entry, further chain, the tested form may be a part): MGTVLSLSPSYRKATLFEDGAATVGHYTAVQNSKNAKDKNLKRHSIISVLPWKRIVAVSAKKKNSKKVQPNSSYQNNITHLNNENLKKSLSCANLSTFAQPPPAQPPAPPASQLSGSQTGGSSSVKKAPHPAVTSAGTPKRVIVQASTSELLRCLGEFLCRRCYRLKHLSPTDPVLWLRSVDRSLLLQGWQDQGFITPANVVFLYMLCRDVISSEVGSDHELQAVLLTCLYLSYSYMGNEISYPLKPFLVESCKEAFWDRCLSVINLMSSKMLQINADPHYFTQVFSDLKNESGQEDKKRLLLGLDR
T7 sequence (P63165 whole entry): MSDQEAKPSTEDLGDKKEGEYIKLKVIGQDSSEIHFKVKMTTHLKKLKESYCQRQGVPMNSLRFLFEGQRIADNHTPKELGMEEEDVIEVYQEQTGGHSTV
T2 sequence (P11940 whole entry, the tested form may be a part): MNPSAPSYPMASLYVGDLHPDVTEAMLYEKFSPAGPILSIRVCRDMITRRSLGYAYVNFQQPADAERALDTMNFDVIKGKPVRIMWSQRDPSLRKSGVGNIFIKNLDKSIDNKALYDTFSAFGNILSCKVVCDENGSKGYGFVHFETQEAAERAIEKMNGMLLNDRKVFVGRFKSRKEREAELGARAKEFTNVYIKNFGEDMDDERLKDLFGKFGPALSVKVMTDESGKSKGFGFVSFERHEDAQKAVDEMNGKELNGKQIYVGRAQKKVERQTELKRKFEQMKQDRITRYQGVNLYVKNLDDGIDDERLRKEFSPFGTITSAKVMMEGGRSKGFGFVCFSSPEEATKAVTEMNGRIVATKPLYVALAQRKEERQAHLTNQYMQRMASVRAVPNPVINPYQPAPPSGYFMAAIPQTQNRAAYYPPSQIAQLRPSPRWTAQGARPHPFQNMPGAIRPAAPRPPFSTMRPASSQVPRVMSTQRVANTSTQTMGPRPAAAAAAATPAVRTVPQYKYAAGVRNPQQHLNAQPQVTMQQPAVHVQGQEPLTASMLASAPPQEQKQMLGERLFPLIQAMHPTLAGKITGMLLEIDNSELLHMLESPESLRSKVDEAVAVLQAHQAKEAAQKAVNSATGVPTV
Chain of Acyl-homoserine lactone acylase PvdQ (Q9I194 24-193 limits assumed): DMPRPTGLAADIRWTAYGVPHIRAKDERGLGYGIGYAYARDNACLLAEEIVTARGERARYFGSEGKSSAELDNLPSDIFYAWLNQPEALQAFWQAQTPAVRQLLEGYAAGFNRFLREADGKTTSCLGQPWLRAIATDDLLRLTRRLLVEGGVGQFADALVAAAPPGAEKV
Chain of Acyl-homoserine lactone acylase PvdQ (Q9I194 217-762 limits assumed): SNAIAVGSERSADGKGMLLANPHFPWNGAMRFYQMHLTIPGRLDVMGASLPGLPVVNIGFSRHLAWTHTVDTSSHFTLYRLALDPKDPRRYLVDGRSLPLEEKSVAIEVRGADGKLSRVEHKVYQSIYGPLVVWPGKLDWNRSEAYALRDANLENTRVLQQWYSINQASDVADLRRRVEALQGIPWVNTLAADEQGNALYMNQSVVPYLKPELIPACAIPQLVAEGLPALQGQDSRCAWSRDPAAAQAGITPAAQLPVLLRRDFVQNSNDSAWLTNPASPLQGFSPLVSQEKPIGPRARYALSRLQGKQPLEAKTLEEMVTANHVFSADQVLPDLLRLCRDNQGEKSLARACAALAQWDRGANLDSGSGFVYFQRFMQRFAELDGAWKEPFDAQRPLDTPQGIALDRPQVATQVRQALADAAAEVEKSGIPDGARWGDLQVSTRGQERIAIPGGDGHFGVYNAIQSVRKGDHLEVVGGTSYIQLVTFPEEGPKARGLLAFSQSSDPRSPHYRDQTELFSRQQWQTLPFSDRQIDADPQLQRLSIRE
Chain of Estrogen receptor beta (Q92731 whole entry, the tested form may be a part): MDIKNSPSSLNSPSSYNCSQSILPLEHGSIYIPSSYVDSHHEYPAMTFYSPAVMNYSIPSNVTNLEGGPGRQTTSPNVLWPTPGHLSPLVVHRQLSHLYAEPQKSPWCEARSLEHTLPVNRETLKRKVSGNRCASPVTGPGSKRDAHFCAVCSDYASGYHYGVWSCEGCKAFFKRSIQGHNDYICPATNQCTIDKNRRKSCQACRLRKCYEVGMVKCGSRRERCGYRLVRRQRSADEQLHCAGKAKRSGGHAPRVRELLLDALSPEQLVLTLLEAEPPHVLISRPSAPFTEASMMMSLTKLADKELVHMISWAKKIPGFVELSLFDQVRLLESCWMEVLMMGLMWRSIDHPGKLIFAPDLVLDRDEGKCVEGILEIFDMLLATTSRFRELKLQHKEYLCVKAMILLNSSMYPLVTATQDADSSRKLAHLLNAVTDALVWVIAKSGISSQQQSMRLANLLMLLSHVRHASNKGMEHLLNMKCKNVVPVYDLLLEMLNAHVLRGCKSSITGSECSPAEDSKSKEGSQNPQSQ
Chain of Peroxisome proliferator-activated receptor gamma/Nuclear receptor coactivator 3 (P37231 whole entry): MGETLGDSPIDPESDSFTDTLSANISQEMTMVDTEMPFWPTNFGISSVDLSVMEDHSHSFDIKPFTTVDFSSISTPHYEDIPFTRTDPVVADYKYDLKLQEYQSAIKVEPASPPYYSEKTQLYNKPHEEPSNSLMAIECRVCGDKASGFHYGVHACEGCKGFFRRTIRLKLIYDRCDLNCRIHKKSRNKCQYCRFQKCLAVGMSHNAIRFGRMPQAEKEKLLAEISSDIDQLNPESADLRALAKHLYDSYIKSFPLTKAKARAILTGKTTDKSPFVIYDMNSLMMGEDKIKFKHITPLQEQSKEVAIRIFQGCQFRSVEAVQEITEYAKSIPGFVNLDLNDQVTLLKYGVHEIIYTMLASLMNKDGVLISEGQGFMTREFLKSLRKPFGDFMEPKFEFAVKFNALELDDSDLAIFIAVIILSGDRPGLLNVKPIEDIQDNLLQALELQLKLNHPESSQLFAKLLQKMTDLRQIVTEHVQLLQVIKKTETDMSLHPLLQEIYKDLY
Chain of Peroxisome proliferator-activated receptor gamma/Nuclear receptor coactivator 3 (Q9Y6Q9 whole entry, further chain): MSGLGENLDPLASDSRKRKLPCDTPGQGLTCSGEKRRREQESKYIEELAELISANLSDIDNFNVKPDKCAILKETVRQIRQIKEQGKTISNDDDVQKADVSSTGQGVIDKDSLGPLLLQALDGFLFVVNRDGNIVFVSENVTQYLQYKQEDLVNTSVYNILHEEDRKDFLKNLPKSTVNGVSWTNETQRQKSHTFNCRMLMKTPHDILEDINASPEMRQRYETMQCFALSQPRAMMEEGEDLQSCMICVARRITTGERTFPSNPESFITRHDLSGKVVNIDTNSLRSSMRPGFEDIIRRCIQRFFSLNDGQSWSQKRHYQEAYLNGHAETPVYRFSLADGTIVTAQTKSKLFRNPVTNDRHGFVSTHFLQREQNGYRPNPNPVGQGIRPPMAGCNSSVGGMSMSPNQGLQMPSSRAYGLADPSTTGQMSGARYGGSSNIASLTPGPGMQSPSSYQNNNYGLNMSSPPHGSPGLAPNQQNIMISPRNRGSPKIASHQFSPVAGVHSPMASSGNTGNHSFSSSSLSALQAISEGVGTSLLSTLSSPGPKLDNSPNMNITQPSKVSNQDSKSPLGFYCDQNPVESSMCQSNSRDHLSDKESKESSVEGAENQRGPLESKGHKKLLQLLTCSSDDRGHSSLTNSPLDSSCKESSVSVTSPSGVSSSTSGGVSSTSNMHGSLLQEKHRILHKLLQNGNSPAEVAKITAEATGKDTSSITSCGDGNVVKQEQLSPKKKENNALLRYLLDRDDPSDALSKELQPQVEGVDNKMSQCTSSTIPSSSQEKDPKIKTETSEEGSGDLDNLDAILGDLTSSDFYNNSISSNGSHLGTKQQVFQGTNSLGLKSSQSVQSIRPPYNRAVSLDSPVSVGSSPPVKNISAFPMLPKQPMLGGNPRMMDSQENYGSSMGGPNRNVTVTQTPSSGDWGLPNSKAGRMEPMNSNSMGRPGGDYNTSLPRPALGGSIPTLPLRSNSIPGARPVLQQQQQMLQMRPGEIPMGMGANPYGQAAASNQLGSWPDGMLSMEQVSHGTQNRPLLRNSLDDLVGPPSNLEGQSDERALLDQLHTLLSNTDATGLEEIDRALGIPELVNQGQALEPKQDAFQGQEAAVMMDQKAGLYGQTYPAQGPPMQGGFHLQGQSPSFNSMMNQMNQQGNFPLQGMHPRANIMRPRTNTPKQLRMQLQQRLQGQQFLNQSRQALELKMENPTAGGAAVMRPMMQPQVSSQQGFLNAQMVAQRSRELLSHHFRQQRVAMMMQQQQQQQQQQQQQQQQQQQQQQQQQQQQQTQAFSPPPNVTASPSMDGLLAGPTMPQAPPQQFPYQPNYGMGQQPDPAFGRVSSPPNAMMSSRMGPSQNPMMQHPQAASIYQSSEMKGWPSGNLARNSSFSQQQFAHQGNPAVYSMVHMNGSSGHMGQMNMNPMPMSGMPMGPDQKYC
Chain of Tumor necrosis factor (P01375 whole entry): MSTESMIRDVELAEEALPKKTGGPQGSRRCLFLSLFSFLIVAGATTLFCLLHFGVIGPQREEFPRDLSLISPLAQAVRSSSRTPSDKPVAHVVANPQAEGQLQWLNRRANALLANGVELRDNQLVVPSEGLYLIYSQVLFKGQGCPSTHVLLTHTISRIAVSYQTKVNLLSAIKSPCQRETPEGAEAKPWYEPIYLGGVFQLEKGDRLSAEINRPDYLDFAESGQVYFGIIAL

With `Cc1cc(C)c2cc3c(ccn3C3OC[C@H](O)[C@H](O)[C@H]3O)cc2n1` (stereo partly drawn) the IC50 (Bcl-2-like protein 10) was > 6.25 µM (inactive), the IC50 (Estrogen receptor beta) was < 0.023 µM (not active) and the IC50 [1] was 57.6 µM (inactive). For the same compound, the IC50 [2] was > 66 µM (inactive).

In the case of `COc1ccc(C2C(C#N)=C(N)Oc3[nH]nc(C)c32)cc1CSc1ccccn1` (stereo not drawn), the EC50 (Protein RecA) is reported as 6.32 µM (active), the EC50 [3] is reported as > 50 µM (active) and the AC50 [4] is reported as 9.71 µM (active).

With `O=[N+]([O-])c1ccc(N2CCCCC2)cc1` the AC50 [5] was 6.52 µM (active).

In the case of `CC(C)Cc1c(O)nc(SCC(=O)Nc2ccc3c(c2)CCC3)nc1O`, the IC50 [6] is reported as > 100 µM (active) and the EC50 [3] is reported as > 50 µM (active).

In the case of `O=C1C2C(C(=O)N1Cc1ccco1)C1C=CC2C12CC2` (stereo not drawn), the AC50 [5] is reported as 2.42 µM (active).

With `Cc1ccc(C(=O)ON=C(N)c2ccccn2)c(C)c1` the AC50 [7] was 11.8 µM (active), the IC50 [8] was 0.772 µM (active) and the EC50 [9] was < 0.16 µM (active). The IC50 (Tumor necrosis factor) was 0.0706 µM (active).

For `CCc1cc2cc3c(cc2nc1SCC(=O)Nc1cc(C)on1)OCO3`, the IC50 [10] was 1.54 µM (active), the EC50 [11] was > 79.4 µM (not active) and the EC50 [12] was > 79.4 µM (not active). The IC50 [13] was > 39.8 µM (not active) and the EC50 [14] was > 79.4 µM (not active).

With `CC(C)[C@H](CO)Nc1nc(Nc2ccc(Cl)c(C(=O)O)c2)c2ncn(C(C)C)c2n1` the AC50 [7] was 9.44 µM (active), the IC50 [15] was 21.4 µM (inactive) and the IC50 [16] was > 66.6 µM (inactive).
